In patent publication US20070049564A1 (Wyeth, priority 2005, published 2007):
Values after ≈ are worked out from the molar mass of the structure shown. Like-named read-outs stand apart in the source and are kept apart here.

Legend:
[1] = tested on: E. coli GC 4560; test: MIC, broth microdilution; conditions: Escherichia coli
[2] = tested on: E. coli GC 6465; test: MIC, broth microdilution; conditions: Escherichia coli
[3] = tested on: E. coli GC 2271; test: MIC, broth microdilution; conditions: Escherichia coli
[4] = tested on: E. coli; test: Range of MIC for E. coli strains; conditions: Escherichia coli
[5] = tested on: P. aeruginosa GC 2214; test: MIC, broth microdilution; conditions: Pseudomonas aeruginosa
[6] = tested on: E. faecalis GC 2242; test: MIC, broth microdilution; conditions: Enterococcus faecalis
Experimental: Antimicrobial susceptibility testing. The in vitro activities of the antibiotics are determined by the broth microdilution method as recommended by the National Committee for Clinical Laboratory Standards (NCCLS) (1). Mueller-Hinton II broth (MHBII)(BBL Cockeysville, Md.) is the medium employed in the testing procedures. Microtiter plates containing serial dilutions of each antimicrobial agent are inoculated with each organism to yield the appropriate density (10^5 CFU/ml) in a 100 μl final volume. The plates are incubated for 18-22 hours at 35° C. in ambient air.
Representative compounds were first incubated in mouse serum for an hour prior to the in vitro testing against a panel of selected gram-positive and gram-negative bacteria strains. All compounds were also pre-incubated in water for an hour prior to testing as control. Representative compounds of Formula I were incubated in human serum prior to MIC determination.

[7] = tested on: S. agalactiae GC 4564; test: MIC, broth microdilution; conditions: Streptococcus agalactiae
[8] = tested on: E. coli GC 1073; test: MIC, broth microdilution; conditions: Escherichia coli
[9] = tested on: E. faecalis GC 2265; test: MIC, broth microdilution; conditions: Enterococcus faecalis
[10] = tested on: E. coli GC 2233; test: MIC, broth microdilution; conditions: Escherichia coli
[11] = tested on: E. coli GC 4559; test: MIC, broth microdilution; conditions: Escherichia coli
[12] = tested on: E. coli GC 2203; test: MIC, broth microdilution; conditions: Escherichia coli
[13] = tested on: S. aureus GC 6469; test: MIC, broth microdilution; conditions: Staphylococcus aureus
[14] = tested on: S. aureus GC 6467; test: MIC, broth microdilution; conditions: Staphylococcus aureus
[15] = tested on: E. coli GC 2270; test: MIC, broth microdilution; conditions: Escherichia coli
[16] = tested on: E. coli GC 2235; test: MIC, broth microdilution; conditions: Escherichia coli
[17] = tested on: E. coli GC 2236; test: MIC, broth microdilution; conditions: Escherichia coli
[18] = tested on: S. aureus GC 4536; test: MIC, broth microdilution; conditions: Staphylococcus aureus
[19] = tested on: Staph.; test: Range of MIC for Staph. strains, including MRSA; conditions: Staphylococcus aureus
[20] = tested on: E. faecalis GC 4555; test: MIC, broth microdilution; conditions: Enterococcus faecalis
[21] = GC4560, pre-incubation in human serum
[22] = GC4560, pre-incubation in mouse serum
[23] = GC4560, pre-incubation in water
[24] = GC6465, pre-incubation in human serum
[25] = GC6465, pre-incubation in mouse serum
[26] = GC6465, pre-incubation in water
[27] = GC2271, pre-incubation in human serum
[28] = GC2271, pre-incubation in mouse serum
[29] = GC2271, pre-incubation in water
[30] = 20 h, read-out: Range of MIC, E. coli (Mouse Serum)
[31] = GC2214, pre-incubation in human serum
[32] = GC2214, pre-incubation in mouse serum
[33] = GC2214, pre-incubation in water
[34] = GC2242, pre-incubation in human serum
[35] = GC2242, pre-incubation in mouse serum
[36] = GC2242, pre-incubation in water
[37] = GC4564, pre-incubation in human serum
[38] = GC4564, pre-incubation in mouse serum
[39] = GC4564, pre-incubation in water
[40] = GC1073, pre-incubation in human serum
[41] = GC1073, pre-incubation in mouse serum
[42] = GC1073, pre-incubation in water
[43] = GC2265, pre-incubation in human serum
[44] = GC2265, pre-incubation in mouse serum
[45] = GC2265, pre-incubation in water
[46] = GC2233, pre-incubation in human serum
[47] = GC2233, pre-incubation in mouse serum
[48] = GC2233, pre-incubation in water
[49] = GC4559, pre-incubation in human serum
[50] = GC4559, pre-incubation in mouse serum
[51] = GC4559, pre-incubation in water
[52] = GC2203, pre-incubation in human serum
[53] = GC2203, pre-incubation in mouse serum
[54] = GC2203, pre-incubation in water
[55] = GC6469, pre-incubation in human serum
[56] = GC6469, pre-incubation in mouse serum
[57] = GC6469, pre-incubation in water
[58] = GC6467, pre-incubation in human serum
[59] = GC6467, pre-incubation in mouse serum
[60] = GC6467, pre-incubation in water
[61] = GC2270, pre-incubation in human serum
[62] = GC2270, pre-incubation in mouse serum
[63] = GC2270, pre-incubation in water
[64] = GC2235, pre-incubation in human serum
[65] = GC2235, pre-incubation in mouse serum
[66] = GC2235, pre-incubation in water
[67] = GC2236, pre-incubation in human serum
[68] = GC2236, pre-incubation in mouse serum
[69] = GC2236, pre-incubation in water
[70] = GC4536, pre-incubation in human serum
[71] = GC4536, pre-incubation in mouse serum
[72] = GC4536, pre-incubation in water
[73] = MRSA, read-out: Range of MIC, Staph (Mouse Serum)
[74] = read-out: Minimum inhibitory concentration (MIC), Staph (Human Serum)
[75] = read-out: Minimum inhibitory concentration (MIC), Staph (Water)
[76] = GC4555, pre-incubation in human serum
[77] = GC4555, pre-incubation in mouse serum
[78] = GC4555, pre-incubation in water

SMILES: CN(C)c1cc(NC(=O)CN(C(=O)OCOC(=O)C2CCC2)C(C)(C)C)c(O)c2c1C[C@H]1C[C@H]3[C@H](N(C)C)C(O)=C(C(N)=O)C(=O)[C@@]3(O)C(O)=C1C2=O [Example 62, ({[(2-{[(5aR,6aS,7S,10aS)-9-(aminocarbonyl)-4,7-bis(dimethylamino)-1,8,10a,11-tetrahydroxy-10,12-dioxo-5,5a,6,6a,7,10,10a,12-octahydrotetracen-2-yl]amino}-2-oxoethyl)(tert-butyl)amino]carbonyl}oxy)methyl cyclobutanecarboxylate]
- MIC [1, 21]: 0.5 mg/L (≈ 0.674 µM)
- MIC [1, 22]: 0.25 mg/L (≈ 0.337 µM)
- MIC [1, 23]: 0.5 mg/L (≈ 0.674 µM)
- MIC [2, 24]: 8 mg/L (≈ 10.8 µM)
- MIC [2, 25]: 2 mg/L (≈ 2.7 µM)
- MIC [2, 26]: > 64 mg/L
- MIC [3, 27]: 2 mg/L (≈ 2.7 µM)
- MIC [3, 28]: 1 mg/L (≈ 1.35 µM)
- MIC [3, 29]: 4 mg/L (≈ 5.39 µM)
- MIC [4, 30]: 0.5 to 2 mg/L (≈ 0.674 to 2.7 µM)
- MIC ([4]; read-out: Minimum inhibitory concentration (MIC), E. coli (Human Serum)): 2 to 8 mg/L (≈ 2.7 to 10.8 µM)
- MIC [5, 31]: > 64 mg/L
- MIC [5, 32]: 16 mg/L (≈ 21.6 µM)
- MIC [5, 33]: > 64 mg/L
- MIC [6, 34]: 0.5 mg/L (≈ 0.674 µM)
- MIC [6, 35]: 0.5 mg/L (≈ 0.674 µM)
- MIC [6, 36]: 0.5 mg/L (≈ 0.674 µM)
- MIC [7, 37]: 0.12 mg/L (≈ 0.162 µM)
- MIC [7, 38]: 0.25 mg/L (≈ 0.337 µM)
- MIC [7, 39]: 0.25 mg/L (≈ 0.337 µM)
- MIC [8, 40]: 4 mg/L (≈ 5.39 µM)
- MIC [8, 41]: 0.5 mg/L (≈ 0.674 µM)
- MIC [8, 42]: 16 mg/L (≈ 21.6 µM)
- MIC [9, 43]: 0.5 mg/L (≈ 0.674 µM)
- MIC [9, 44]: 0.5 mg/L (≈ 0.674 µM)
- MIC [9, 45]: 1 mg/L (≈ 1.35 µM)
- MIC [10, 46]: 4 mg/L (≈ 5.39 µM)
- MIC [10, 47]: 2 mg/L (≈ 2.7 µM)
- MIC [10, 48]: 8 mg/L (≈ 10.8 µM)
- MIC [11, 49]: 8 mg/L (≈ 10.8 µM)
- MIC [11, 50]: 1 mg/L (≈ 1.35 µM)
- MIC [11, 51]: 16 mg/L (≈ 21.6 µM)
- MIC [12, 52]: 4 mg/L (≈ 5.39 µM)
- MIC [12, 53]: 1 mg/L (≈ 1.35 µM)
- MIC [12, 54]: 16 mg/L (≈ 21.6 µM)
- MIC [13, 55]: 0.5 mg/L (≈ 0.674 µM)
- MIC [13, 56]: 1 mg/L (≈ 1.35 µM)
- MIC [13, 57]: 1 mg/L (≈ 1.35 µM)
- MIC [14, 58]: 0.5 mg/L (≈ 0.674 µM)
- MIC [14, 59]: 1 mg/L (≈ 1.35 µM)
- MIC [14, 60]: 0.5 mg/L (≈ 0.674 µM)
- MIC [15, 61]: 2 mg/L (≈ 2.7 µM)
- MIC [15, 62]: 0.5 mg/L (≈ 0.674 µM)
- MIC [15, 63]: 8 mg/L (≈ 10.8 µM)
- MIC [16, 64]: 2 mg/L (≈ 2.7 µM)
- MIC [16, 65]: 0.5 mg/L (≈ 0.674 µM)
- MIC [16, 66]: 4 mg/L (≈ 5.39 µM)
- MIC [17, 67]: 8 mg/L (≈ 10.8 µM)
- MIC [17, 68]: 0.5 mg/L (≈ 0.674 µM)
- MIC [17, 69]: 4 mg/L (≈ 5.39 µM)
- MIC [18, 70]: 0.5 mg/L (≈ 0.674 µM)
- MIC [18, 71]: 0.5 mg/L (≈ 0.674 µM)
- MIC [18, 72]: 0.5 mg/L (≈ 0.674 µM)
- MIC [19, 73]: 0.5 to 1 mg/L (≈ 0.674 to 1.35 µM)
- MIC [19, 74]: 0.5 mg/L (≈ 0.674 µM)
- MIC [19, 75]: 0.25 to 1 mg/L (≈ 0.337 to 1.35 µM)
- MIC [20, 76]: 0.5 mg/L (≈ 0.674 µM)
- MIC [20, 77]: 1 mg/L (≈ 1.35 µM)
- MIC [20, 78]: 1 mg/L (≈ 1.35 µM)

SMILES: CN(C)c1cc(NC(=O)CN(C(=O)OCOC(=O)CCC2CCCCC2)C(C)(C)C)c(O)c2c1C[C@H]1C[C@H]3[C@H](N(C)C)C(O)=C(C(N)=O)C(=O)[C@@]3(O)C(O)=C1C2=O [Example 63, ({[(2-{[(5aR,6aS,7S,10aS)-9-(aminocarbonyl)-4,7-bis(dimethylamino)-1,8,10a,11-tetrahydroxy-10,12-dioxo-5,5a,6,6a,7,10,10a,12-octahydrotetracen-2-yl]amino}-2-oxoethyl)(tert-butyl)amino]carbonyl}oxy)methyl 3-cyclohexylpropanoate]
- MIC [1, 21]: 2 mg/L (≈ 2.51 µM)
- MIC [1, 22]: 0.5 mg/L (≈ 0.627 µM)
- MIC [1, 23]: 16 mg/L (≈ 20.1 µM)
- MIC [2, 24]: > 64 mg/L
- MIC [2, 25]: 2 mg/L (≈ 2.51 µM)
- MIC [2, 26]: > 64 mg/L
- MIC [3, 27]: > 64 mg/L
- MIC [3, 28]: 0.5 mg/L (≈ 0.627 µM)
- MIC [3, 29]: > 64 mg/L
- MIC [4, 30]: 0.5 to 2 mg/L (≈ 0.627 to 2.51 µM)
- MIC ([4]; read-out: Minimum inhibitory concentration (MIC), E. coli (water)): > 64 mg/L
- MIC ([4]; read-out: Range of MIC, E. coli (Water)): > 64 mg/L
- MIC [5, 31]: > 64 mg/L
- MIC [5, 32]: 32 mg/L (≈ 40.1 µM)
- MIC [5, 33]: > 64 mg/L
- MIC [6, 34]: 1 mg/L (≈ 1.25 µM)
- MIC [6, 35]: 1 mg/L (≈ 1.25 µM)
- MIC [6, 36]: 1 mg/L (≈ 1.25 µM)
- MIC [7, 37]: 0.25 mg/L (≈ 0.313 µM)
- MIC [7, 38]: 0.25 mg/L (≈ 0.313 µM)
- MIC [7, 39]: 0.25 mg/L (≈ 0.313 µM)
- MIC [8, 40]: > 64 mg/L
- MIC [8, 41]: 2 mg/L (≈ 2.51 µM)
- MIC [8, 42]: > 64 mg/L
- MIC [9, 43]: 2 mg/L (≈ 2.51 µM)
- MIC [9, 44]: 1 mg/L (≈ 1.25 µM)
- MIC [9, 45]: 8 mg/L (≈ 10 µM)
- MIC [10, 46]: > 64 mg/L
- MIC [10, 47]: 1 mg/L (≈ 1.25 µM)
- MIC [10, 48]: > 64 mg/L
- MIC [11, 49]: > 64 mg/L
- MIC [11, 50]: 2 mg/L (≈ 2.51 µM)
- MIC [11, 51]: > 64 mg/L
- MIC [12, 52]: > 64 mg/L
- MIC [12, 53]: 1 mg/L (≈ 1.25 µM)
- MIC [12, 54]: > 64 mg/L
- MIC [13, 55]: 2 mg/L (≈ 2.51 µM)
- MIC [13, 56]: 1 mg/L (≈ 1.25 µM)
- MIC [13, 57]: 16 mg/L (≈ 20.1 µM)
- MIC [14, 58]: 4 mg/L (≈ 5.01 µM)
- MIC [14, 59]: 2 mg/L (≈ 2.51 µM)
- MIC [14, 60]: 16 mg/L (≈ 20.1 µM)
- MIC [15, 61]: 64 mg/L (≈ 80.2 µM)
- MIC [15, 62]: 0.5 mg/L (≈ 0.627 µM)
- MIC [15, 63]: > 64 mg/L
- MIC [16, 64]: > 64 mg/L
- MIC [16, 65]: 0.5 mg/L (≈ 0.627 µM)
- MIC [16, 66]: > 64 mg/L
- MIC [17, 67]: > 64 mg/L
- MIC [17, 68]: 1 mg/L (≈ 1.25 µM)
- MIC [17, 69]: > 64 mg/L
- MIC [18, 70]: 1 mg/L (≈ 1.25 µM)
- MIC [18, 71]: 1 mg/L (≈ 1.25 µM)
- MIC [18, 72]: 4 mg/L (≈ 5.01 µM)
- MIC [19, 73]: 0.5 to 2 mg/L (≈ 0.627 to 2.51 µM)
- MIC ([19]; MRSA, read-out: Range of MIC, Staph (Water)): 2 to 16 mg/L (≈ 2.51 to 20.1 µM)
- MIC [19, 74]: 1 to 4 mg/L (≈ 1.25 to 5.01 µM)
- MIC [19, 75]: 2 to 16 mg/L (≈ 2.51 to 20.1 µM)
- MIC [20, 76]: 2 mg/L (≈ 2.51 µM)
- MIC [20, 77]: 1 mg/L (≈ 1.25 µM)
- MIC [20, 78]: 4 mg/L (≈ 5.01 µM)
